The source of these data is PubChem BioAssay (NCI).

Test systems include SF-295 CNS; A498 renal; HCT-116 colon; UACC-257 melanoma; SF-539 CNS; HT29 colon; OVCAR-8 ovarian; NCI-H460 lung; NCI-H226 lung; SF-268 CNS.
Holding throughout (assay): NCI-60 cell line screen, 48 h

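Cultured in 96-well plates, cells were exposed to test compound for 48 hours across five concentrations. Here, GI50 denotes the concentration required for 50% inhibition of growth. TGI: concentration producing complete growth inhibition.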 Bounds are passed on as bounds.

Consider `O=C(N/N=C\c1cc(Cl)ccc1O)N/N=C/c1cc(Cl)ccc1O`, for which the GI50 in the assay on SF-295 CNS is 2.37 µM; with A498 renal it was over 100 µM; with HCT-116 colon, 0.565 µM; in the assay with UACC-257 melanoma, 6.6 µM; with SF-539 CNS, 2.32 µM; in the assay on HT29 colon it was 9.57 µM. Moreover, the GI50 in the assay with OVCAR-8 ovarian was 1.77 µM; with NCI-H460 lung, 0.518 µM; with NCI-H226 lung, over 100 µM; in the assay on SF-268 CNS, 9.74 µM. Also, the TGI in the assay on SF-295 CNS, in the assay with A498 renal, with HCT-116 colon, in the assay on UACC-257 melanoma, with SF-539 CNS and in the assay with HT29 colon was over 100 µM each time. Moreover, the TGI in the assay on OVCAR-8 ovarian, in the assay with NCI-H460 lung, in the assay on NCI-H226 lung and in the assay on SF-268 CNS was over 100 µM in each case.

As for `Cc1ccc(NC(=O)CCC(=O)C(C#N)c2ccc(Cl)cc2)cc1C` (stereo not given), the TGI in the assay with SF-295 CNS, in the assay on A498 renal, in the assay on HCT-116 colon, in the assay on UACC-257 melanoma, in the assay with SF-539 CNS and in the assay on HT29 colon was over 100 µM throughout. Moreover, the TGI in the assay on OVCAR-8 ovarian, in the assay with NCI-H460 lung, with NCI-H226 lung and with SF-268 CNS was over 100 µM each time.

Regarding `COc1ccccc1OCC(O)CO` (stereo not given), the GI50 in the assay with SF-295 CNS, in the assay with A498 renal, with HCT-116 colon, in the assay with UACC-257 melanoma, in the assay with SF-539 CNS and in the assay on HT29 colon was over 100 µM each time. For the same molecule, the GI50 in the assay with OVCAR-8 ovarian, in the assay on NCI-H460 lung, in the assay on NCI-H226 lung and with SF-268 CNS was over 100 µM throughout. Also, the TGI with SF-295 CNS, in the assay on A498 renal, with HCT-116 colon, with UACC-257 melanoma, in the assay on SF-539 CNS and with HT29 colon was over 100 µM throughout. The TGI in the assay on OVCAR-8 ovarian, in the assay on NCI-H460 lung, with NCI-H226 lung and in the assay with SF-268 CNS was over 100 µM in each case.

For `O=c1c2c(=NCCCN3CCCC3)cc3c(=O)n(CCCN4CCCC4)c(=O)c4c(NCCCN5CCCC5)cc(c(O)n1CCCN1CCCC1)c2c4-3`, the GI50 with SF-295 CNS is 1.95 µM; with A498 renal it was 2.13 µM; in the assay with HCT-116 colon, 2.01 µM; in the assay on UACC-257 melanoma it was 2.98 µM; in the assay on SF-539 CNS, 2.42 µM; in the assay on HT29 colon it was 1.51 µM. Besides, the GI50 is 1.74 µM in the assay on OVCAR-8 ovarian, 1.78 µM in the assay with NCI-H460 lung, 1.07 µM in the assay with NCI-H226 lung and 2.23 µM in the assay on SF-268 CNS. Besides, the TGI with SF-295 CNS amounted to 8.61 µM; in the assay with A498 renal it was 4.98 µM; in the assay with HCT-116 colon, 6.43 µM; with UACC-257 melanoma it was 8.77 µM; with SF-539 CNS, 8.98 µM; with HT29 colon, 6.49 µM. The TGI with OVCAR-8 ovarian stood at 12.3 µM; with NCI-H460 lung, 4.01 µM; in the assay with NCI-H226 lung it was 7.8 µM; in the assay with SF-268 CNS, 8.66 µM.

`C/C(=N\NC(=S)Nc1ccc([N+](=O)[O-])cc1S(=O)(=O)O)c1ccccn1`: the TGI in the assay on SF-295 CNS is over 100 µM; with A498 renal it was 88.8 µM; in the assay on HCT-116 colon, over 100 µM; in the assay on UACC-257 melanoma, over 100 µM; in the assay with SF-539 CNS it was over 100 µM; in the assay on HT29 colon, over 100 µM. Moreover, the TGI in the assay on OVCAR-8 ovarian was over 100 µM; in the assay with NCI-H460 lung, 69 µM; in the assay on NCI-H226 lung, over 100 µM; in the assay with SF-268 CNS, over 100 µM.

Turning to `O=C(O)C(O)C(O)C1[O][Sb][O]C1CO` (stereo not given), the GI50 with SF-295 CNS, in the assay with A498 renal, in the assay on HCT-116 colon, in the assay on UACC-257 melanoma, with SF-539 CNS and with HT29 colon was over 100 µM each time. In addition, the GI50 in the assay on OVCAR-8 ovarian, with NCI-H460 lung, in the assay on NCI-H226 lung and with SF-268 CNS was over 100 µM throughout. Also, the TGI in the assay with SF-295 CNS, with A498 renal, with HCT-116 colon, in the assay with UACC-257 melanoma, with SF-539 CNS and in the assay on HT29 colon was over 100 µM throughout. The TGI in the assay on OVCAR-8 ovarian, in the assay on NCI-H460 lung, with NCI-H226 lung and in the assay with SF-268 CNS was over 100 µM each time.

As for `Cn1cc(/C=C2\C(=O)Nc3cccnc32)c2ccccc21`, the GI50 was over 25 µM with SF-295 CNS; 4.73 µM in the assay on A498 renal; 14.7 µM with HCT-116 colon; 13.9 µM with UACC-257 melanoma; over 25 µM with SF-539 CNS; 13.1 µM with HT29 colon. Further, the GI50 in the assay on OVCAR-8 ovarian was 16.9 µM; in the assay on NCI-H460 lung, 16.4 µM; with NCI-H226 lung it was 10.8 µM; in the assay on SF-268 CNS, over 21.7 µM. Moreover, the TGI with SF-295 CNS, in the assay with A498 renal, in the assay with HCT-116 colon, with UACC-257 melanoma, in the assay with SF-539 CNS and in the assay with HT29 colon was over 25 µM each time. In addition, the TGI in the assay with OVCAR-8 ovarian, in the assay on NCI-H460 lung, with NCI-H226 lung and in the assay on SF-268 CNS was over 25 µM in each case.
